{"source": "patent US6506580B1", "about": "“Splice variants for human 5-HT4 serotonin receptor and their applications, in particular for screening” (Institut National de la Sante et de la Recherche Medicale …, priority 1997, dated 2003)", "key": {"receptor 5-HT4(a) [1]": {"target": "T1, receptor 5-HT4(a) (Homo sapiens, UniProt Q13639)", "T1 construct": "The entire coding region of the cDNAs of 5-HT4(a), 5-HT4(b), 5-HT4(c) and 5-T4(d) was subcloned; expressed in transfected cells; host or cells: COS-7 cells, transient, pRC/CMV vector", "T1 sequence (Q13639 1-387 isoform Q13639-2)": "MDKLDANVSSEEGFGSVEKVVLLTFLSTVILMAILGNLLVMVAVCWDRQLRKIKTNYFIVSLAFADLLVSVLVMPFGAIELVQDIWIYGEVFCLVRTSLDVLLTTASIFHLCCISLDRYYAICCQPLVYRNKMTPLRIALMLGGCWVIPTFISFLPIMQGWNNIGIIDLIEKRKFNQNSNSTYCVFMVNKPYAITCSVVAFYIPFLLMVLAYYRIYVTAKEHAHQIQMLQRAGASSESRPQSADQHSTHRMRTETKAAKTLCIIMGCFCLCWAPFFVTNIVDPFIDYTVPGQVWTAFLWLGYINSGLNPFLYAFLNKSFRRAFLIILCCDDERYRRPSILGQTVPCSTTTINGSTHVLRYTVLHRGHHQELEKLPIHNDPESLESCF", "test": "[3H]GR113808 radioligand binding, membranes of transiently transfected COS-7 cells", "details": "read-out: Ki, competition for [3H]GR113808 binding", "experimental": "(§1) The entire coding region of the cDNAs of 5-HT4(a), 5-HT4(b), 5-HT4(c) and 5-T4(d) was subcloned into a mammalian expression vector pRC/CMV (Invitrogen, Carlsbad, Calif.). The transfections were carried out using polyethyleneimine (PEI) as described in Boussif et al. (1995). The cells were transfected using a mixture of DNA and of PEI in a ratio of 20 μmol of PEI/mg of DNA in 0.9% NaCl. For the radioligand binding assays, the COS-7 cells were seeded into culture flasks of 1.5×10^4 mm^2 one day before the transfection, at a density of 1×10^7 cells/flask, incubated for six hours with plasmid DNA (150 μg/flask) and collected 48 hours after transfection. For the measurement of cAMP formation, the COS-7 cells were seeded onto twelve-well plates one day before transfection, at a density of 5×10^5 cells/well, incubated for six hours with plasmid DNA (4 to 8 μg/well according to the experiments) and assayed 24 hours after the transfection. The cells transfected with the receptor 5-HT4 cDNA constructs were compared with the “blank”-transfected cells, which were exposed to the unmodified pRC/CMV plasmid.\n(§2) Each flask of cells intended for the radioligand binding assays was washed twice with a phosphate buffer (PBS). The cells were then scraped, collected and centrifuged at 300 g for five minutes. The pellet was resuspended in 2.5 ml of ice-cold HEPES buffer (50 mM, pH 7.4) and homogenized with an Ultraturax tissue grinder. The lysate was then centrifuged at 40,000 g for 20 minutes at 4° C. The resulting pellet was resuspended in 15 volumes of HEPES buffer (50 mM, pH 7.4). The membrane preparations were maintained in ice and used within two hours for radioligand binding assays. The protein concentrations were determined by the method of Lowry et al., 1951, using bovine serum albumin as standard.\n(§3) The saturation studies were performed using [^3H] GR113808 at 9 different concentrations ranging from 0.01 to 3.5 nM. The tubes were incubated at 25° C. for 30 minutes. The reaction-was stopped by rapid filtration, under vacuum, through Whatman GF/B filter paper using the Brandel 48R cell harvester. The filters were presoaked in a solution of PEI (0.1%) to reduce the binding to the filters. The filters were then washed with an ice-cold buffer (50 mM Tris-HCl, pH 7.4) and placed in 4 ml of “ready safe” scintillation cocktail (Beckman, Fullerton, Calif.) overnight. The radioactivity was measured using a Beckman LS 6500 C liquid scintillation counter. The binding data were analysed by computer-assisted nonlinear regression analysis (Graph Pad Prism Program, Graph Pad Software, Inc., San Diego, Calif.).\n(§4) The experiments correspond to the competition of various compounds for [^3H]GR113808 binding to membranes of transiently transfected COS-7 cells. […] The estimations of affinity are given as Ki values in nM, and are determined from IC50 values obtained by computer-assisted nonlinear curve analysis (GraphPad, Prism Software). The Ki values are representative of at least two determinations."}, "receptor 5-HT4(b) [2]": {"target": "T2, receptor 5-HT4(b) (Homo sapiens, UniProt Q13639)", "T2 construct": "The entire coding region of the cDNAs of 5-HT4(a), 5-HT4(b), 5-HT4(c) and 5-T4(d) was subcloned; expressed in transfected cells; host or cells: COS-7 cells, transient, pRC/CMV vector; cDNA amplified from human brain and ileum RNA", "T2 sequence (Q13639 whole entry)": "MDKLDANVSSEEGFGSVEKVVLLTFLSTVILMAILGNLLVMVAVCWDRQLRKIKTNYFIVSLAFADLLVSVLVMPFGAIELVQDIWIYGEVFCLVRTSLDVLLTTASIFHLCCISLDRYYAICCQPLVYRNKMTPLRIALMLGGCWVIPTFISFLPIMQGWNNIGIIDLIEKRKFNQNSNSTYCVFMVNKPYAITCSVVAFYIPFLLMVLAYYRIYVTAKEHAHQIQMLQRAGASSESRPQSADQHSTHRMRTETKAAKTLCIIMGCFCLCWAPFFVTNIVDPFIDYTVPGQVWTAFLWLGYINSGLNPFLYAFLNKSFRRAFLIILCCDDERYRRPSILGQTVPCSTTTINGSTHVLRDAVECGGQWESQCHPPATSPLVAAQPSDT", "test": "[3H]GR113808 radioligand binding, membranes of transiently transfected COS-7 cells", "details": "read-out: Ki, competition for [3H]GR113808 binding", "experimental": "as §1, §2, §3, §4"}, "[3]": {"test_system": "cells expressing the isoforms of the receptor 5-HT4", "test": "cAMP formation in transiently transfected COS-7 cells, statement for all isoforms together", "format": "cell-based, human", "details": "preincubation with 1 μM prior to 5-HT, COS-7 cells expressing the isoforms", "experimental": "The entire coding region of the cDNAs of 5-HT4(a), 5-HT4(b), 5-HT4(c) and 5-T4(d) was subcloned into a mammalian expression vector pRC/CMV (Invitrogen, Carlsbad, Calif.). The transfections were carried out using polyethyleneimine (PEI) as described in Boussif et al. (1995). The cells were transfected using a mixture of DNA and of PEI in a ratio of 20 μmol of PEI/mg of DNA in 0.9% NaCl. […] The cells transfected with the receptor 5-HT4 cDNA constructs were compared with the “blank”-transfected cells, which were exposed to the unmodified pRC/CMV plasmid. […] The reaction was stopped by aspiration of the medium and addition of 500 μl of ice-cold ethanol. After one hour at room temperature, the cells were scraped, and everything was collected and freeze-dried. The pellet was resuspended in 350 μl of PBS and centrifuged for 5 min at 300 g. The cAMP was quantified in the supernatant using a radioimmunological assay (E.R.I.A. assay kit from Pasteur Diagnostics 79830). Student's t tests were carried out using the program Quick TEst."}, "receptor 5-HT4(d)": {"target": "receptor 5-HT4(d) (Homo sapiens, UniProt Q13639)", "sequence (Q13639 1-360 isoform Q13639-3)": "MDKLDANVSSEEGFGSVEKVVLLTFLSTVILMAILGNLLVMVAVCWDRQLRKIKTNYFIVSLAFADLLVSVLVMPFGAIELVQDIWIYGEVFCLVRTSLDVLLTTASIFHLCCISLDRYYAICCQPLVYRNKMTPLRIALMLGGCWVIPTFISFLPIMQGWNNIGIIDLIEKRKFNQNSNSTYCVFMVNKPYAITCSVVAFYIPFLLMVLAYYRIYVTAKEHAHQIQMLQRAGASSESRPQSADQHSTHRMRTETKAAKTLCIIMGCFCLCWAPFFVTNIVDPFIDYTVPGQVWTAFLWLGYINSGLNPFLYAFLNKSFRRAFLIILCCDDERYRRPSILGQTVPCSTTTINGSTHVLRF", "test": "[3H]GR113808 radioligand binding, membranes of transiently transfected COS-7 cells", "set-up": "The entire coding region of the cDNAs of 5-HT4(a), 5-HT4(b), 5-HT4(c) and 5-T4(d) was subcloned; expressed in transfected cells; host or cells: COS-7 cells, transient, pRC/CMV vector; cDNA amplified from human brain and ileum RNA", "details": "read-out: Ki, competition for [3H]GR113808 binding", "experimental": "as §1, §2, §3, §4"}, "receptor 5-HT4(a) [4]": {"target": "T1, receptor 5-HT4(a)", "test": "cAMP formation in transiently transfected COS-7 cells", "format": "cell-based", "details": "COS-7, 1 μM, no agonist", "experimental": "as §1\n(§5) To measure intracellular cAMP accumulation, the transiently transfected COS-7 cells were incubated, 24 hours after transfection, in Dulbecco's modified Eagle medium (DMEM) containing 5 mM theophylline, 10 mM HEPES and 10 μM pargyline for 15 minutes at 37° C., in the presence of 5% CO2. […] The reaction was stopped by aspiration of the medium and addition of 500 μl of ice-cold ethanol. After one hour at room temperature, the cells were scraped, and everything was collected and freeze-dried. The pellet was resuspended in 350 μl of PBS and centrifuged for 5 min at 300 g. The cAMP was quantified in the supernatant using a radioimmunological assay (E.R.I.A. assay kit from Pasteur Diagnostics 79830). Student's t tests were carried out using the program Quick TEst."}, "receptor 5-HT4(b) [5]": {"target": "T2, receptor 5-HT4(b)", "test": "cAMP formation in transiently transfected COS-7 cells", "format": "cell-based", "details": "COS-7, 1 μM, no agonist", "experimental": "as §1, §5"}}, "data": [{"compound": "COc1cc(N)c(Cl)cc1C(=O)OCCN1C[C@H](C)C[C@H](C)C1", "note": "[ML10375, 2-(cis-3,5-dimethyl-piperidino)ethyl 4-amino-5-chloro-2-methoxybenzoate]", "values": [{"measurement": "Ki", "setting": "receptor 5-HT4(a) [1]", "result": "0.56 ± 0.11", "unit": "nM"}, {"measurement": "Ki", "setting": "receptor 5-HT4(b) [2]", "result": "1.62 ± 0.82", "unit": "nM"}, {"measurement": "antagonism of the capacity of 5-HT (1 μM) to increase basal cAMP levels", "setting": "[3]", "result": "antagonizes"}, {"measurement": "Ki", "setting": "receptor 5-HT4(d)", "result": "0.41 ± 0.1", "unit": "nM"}, {"measurement": "effect on the basal cAMP levels", "setting": "receptor 5-HT4(a) [4]", "result": "no significant effect"}, {"measurement": "effect on the basal cAMP levels", "setting": "receptor 5-HT4(b) [5]", "result": "no significant effect"}]}]}
